Experimental data from patent US11642369B2, “Method for enhancing expression of antioxidant in epidermis” (J-Network, Inc., priority 2020, dated 2023).

Legend:
PPARG = assay: Expression of oxidative stress response gene PPARG, quantitative real-time PCR; assay type: cell-based, human; details: NHEM, GDS23 500, 1000, 2000 μM, 6 hours; mRNA corrected with GAPDH, control 100%; FIG. 2
Protocol: (§1) After samples were prepared using normal human epidermal melanocytes, RNA was extracted, and expression and amplification of genes of each of target substances (Nrf-2, PPARG, NQO-1, CAT, and HMOX1) were checked by real-time PCR. PPARG is the genetic code of the protein PPARγ and is one of oxidative stress response genes.
(§2) Sample 1 is a control (no GDS23 added). Samples 2 to 4 are different from one another in the amount of GDS23. • Sample 1: Control (N.C.) • Sample 2: GDS23 (500 μM) • Sample 3: GDS23 (1000 μM) • Sample 4: GDS23 (2000 μM)
(§3) Thereafter, RNA was extracted from the cultured cells for each sample. Reverse transcription of the extracted RNA was performed to generate cDNA, and the quantity of mRNA of each target substance was determined by quantitative real-time PCR expression analysis. GAPDH (glyceraldehyde-3-phosphate dehydrogenase) was used as an internal standard. In the analysis, the mRNA expression level of each target substance was corrected with a value of the expression level of GAPDH as the internal standard in the same sample, and thereafter the correction value for each sample was calculated, assuming the correction value for the control as 100%.

glutathione = assay: Expression of antioxidant protein: total glutathione per protein quantity, glutathione reductase recycling method; assay type: cell-based, human; details: NHEM, GDS23 500 to 4000 μM, 24 hours; control 100%; FIG. 6
Protocol: After samples were prepared using normal human epidermal melanocytes, the quantity of glutathione as an antioxidant protein in cells was checked.
Sample 5 is a control (no GDS23 added). Samples 6 to 9 are different from one another in the amount of GDS23. • Sample 5: Control (N.C.) • Sample 6: GDS23 (500 μM) • Sample 7: GDS23 (1000 μM) • Sample 8: GDS23 (2000 μM) • Sample 9: GDS23 (4000 μM)
Thereafter, for each sample, the protein quantity in epidermal melanocytes and the quantity of total glutathione (GSH+GSSG) were determined by a glutathione reductase recycling method, using an assay kit (TaKaRa BCA Protein Assay Kit: from Takara Bio Inc.). The total quantity of glutathione per protein quantity was obtained from the protein quantity and the total quantity of glutathione determined for each sample, and then an increased ratio for each sample was calculated when an increased ratio for the control was assumed as 100%.

CAT = assay: Expression of antioxidant enzyme CAT, quantitative real-time PCR; assay type: cell-based, human; details: NHEM, GDS23 500, 1000 μM (Samples 1 to 3), 6 hours; mRNA corrected with GAPDH, control 100%; FIG. 4
Protocol: as §1, §2, §3

Nrf-2 = assay: Expression of oxidative stress response gene Nrf-2, quantitative real-time PCR; assay type: cell-based, human; details: NHEM, GDS23 500, 1000, 2000 μM, 6 hours; mRNA corrected with GAPDH, control 100%; FIG. 1
Protocol: as §1, §2, §3

HMOX1 = assay: Expression of antioxidant enzyme HMOX1, quantitative real-time PCR; assay type: cell-based, human; details: NHEM, GDS23 500, 1000, 2000 μM, 6 hours; mRNA corrected with GAPDH, control 100%; FIG. 5
Protocol: as §1, §2, §3

NQO-1 = assay: Expression of antioxidant enzyme NQO-1, quantitative real-time PCR; assay type: cell-based, human; details: NHEM, GDS23 500, 1000, 2000 μM, 6 hours; mRNA corrected with GAPDH, control 100%; FIG. 3
Protocol: as §1, §2, §3

Diameter of vesicles = assay type: physicochemical; details: vesicles self-formed in a 2% aqueous solution
Protocol: Sample 62 was added to a medium in the form of refined vesicles. The refined vesicles were prepared in the following manner. […] Among the vesicles obtained by this preparation method, 97.3% had diameters in a range of 20 to 40 nm. In general, for example, the average diameters of vesicles self-formed in a 2% aqueous solution of GDM12 and a 2% aqueous solution of GDS23 are both about 140 nm.

average diameters of vesicles (Diameter of vesicles) | Substance | expression level of PPARG (PPARG) | total quantity of glutathione per protein quantity (glutathione) | expression level of CAT (CAT) | expression level of Nrf-2 (Nrf-2) | expression level of HMOX1 (HMOX1) | expression level of NQO-1 (NQO-1)
about 140 nm | PEG-23 glycerol distearate [GDS23] | enhances expression | promotes production of glutathione | enhancement of CAT | enhances expression | Enhancement of HMOX1 | enhancement of NQO-1
about 140 nm | PEG-12 glycerol dimyristate [GDM12] | – | – | – | – | – | –
